In patent US10004701B2, “Methods and compositions for treating infection” (UNIVERSITY OF ROCHESTER, priority 2012, dated 2018):
Structures can show the parent of a compound that is named as a salt. Where two headings read alike, the source gives them in different places.

What was measured:
Assay in all cases: AK assay 384-well format, Prestwick library screening
[1] = test system: E. faecium; format: cell-based, Enterococcus faecium; conditions: Enterococcus faecium, 3 h
[2] = test system: S. aureus strain USA300-0114; format: cell-based, Staphylococcus aureus; conditions: Staphylococcus aureus, USA300, 3 h
[3] = test system: K. pneumoniae; format: cell-based, Klebsiella pneumoniae; conditions: Klebsiella pneumoniae, 3 h
[4] = test system: A. baumannii strain 98-37-09; format: cell-based, Acinetobacter baumannii; conditions: Acinetobacter baumannii, 983709, 3 h
[5] = test system: P. aeruginosa; format: cell-based, Pseudomonas aeruginosa; conditions: Pseudomonas aeruginosa, 3 h
[6] = test system: E. cloacae; format: cell-based, Enterobacter cloacae; conditions: Enterobacter cloacae, 3 h
[7] = test system: E. coli; format: cell-based, Escherichia coli; conditions: Escherichia coli, 3 h
[8] = planktonic E. faecium, 50 μM final drug concentration, cutoff for positive-scoring molecules 3-fold increase, read-out: AK-based Prestwick Library Screening Results, E. faecium (increase in extracellular AK activity)
[9] = planktonic S. aureus, 50 μM final drug concentration, cutoff for positive-scoring molecules 3-fold increase, read-out: AK-based Prestwick Library Screening Results, S. aureus (increase in extracellular AK activity)
[10] = planktonic K. pneumoniae, 50 μM final drug concentration, cutoff for positive-scoring molecules 3-fold increase, read-out: AK-based Prestwick Library Screening Results, K. pneumoniae (increase in extracellular AK activity)
[11] = planktonic A. baumannii, 50 μM final drug concentration, cutoff for positive-scoring molecules 3-fold increase, read-out: AK-based Prestwick Library Screening Results, A. baumannii (increase in extracellular AK activity)
[12] = planktonic P. aeruginosa, 50 μM final drug concentration, cutoff for positive-scoring molecules 3-fold increase, read-out: AK-based Prestwick Library Screening Results, P. aeruginosa (increase in extracellular AK activity)
[13] = planktonic E. cloacae, 50 μM final drug concentration, cutoff for positive-scoring molecules 3-fold increase, read-out: AK-based Prestwick Library Screening Results, E. cloacae (increase in extracellular AK activity)
[14] = planktonic E. coli, 50 μM final drug concentration, cutoff for positive-scoring molecules 3-fold increase, read-out: AK-based Prestwick Library Screening Results, E. coli (increase in extracellular AK activity)
[15] = 50 μM final drug concentration, 384-well format, cutoff for positive-scoring molecules 3-fold increase, read-out: AK-based Prestwick Library Screening Results, E. faecium (increase in extracellular AK activity)
[16] = 50 μM final drug concentration, 384-well format, cutoff for positive-scoring molecules 3-fold increase, read-out: AK-based Prestwick Library Screening Results, S. aureus (increase in extracellular AK activity)
[17] = 50 μM final drug concentration, 384-well format, cutoff for positive-scoring molecules 3-fold increase, read-out: AK-based Prestwick Library Screening Results, K. pneumoniae (increase in extracellular AK activity)
[18] = 50 μM final drug concentration, 384-well format, cutoff for positive-scoring molecules 3-fold increase, read-out: AK-based Prestwick Library Screening Results, A. baumannii (increase in extracellular AK activity)
[19] = 50 μM final drug concentration, 384-well format, cutoff for positive-scoring molecules 3-fold increase, read-out: AK-based Prestwick Library Screening Results, P. aeruginosa (increase in extracellular AK activity)
[20] = 50 μM final drug concentration, 384-well format, cutoff for positive-scoring molecules 3-fold increase, read-out: AK-based Prestwick Library Screening Results, E. cloacae (increase in extracellular AK activity)
[21] = 50 μM final drug concentration, 384-well format, cutoff for positive-scoring molecules 3-fold increase, read-out: AK-based Prestwick Library Screening Results, E. coli (increase in extracellular AK activity)

## C[C@@H]1CCC[C@H](C)N1NC(=O)c1ccc(Cl)c(S(N)(=O)=O)c1 [Clopamide]
[1]; [8]
  fold induction at 50 µM: 0.9
[2]; [9]
  fold induction at 50 µM: 0.7
[3]; [10]
  fold induction at 50 µM: 0.7
[4]; [11]
  fold induction at 50 µM: 0.8
[5]; [12]
  fold induction at 50 µM: 0.8
[6]; [13]
  fold induction at 50 µM: 1
[7]; [14]
  fold induction at 50 µM: 0.8

## Clc1ccc(C(OCCN2CCCCC2)c2ccccc2)cc1 (stereo not shown) [Cloperastine hydrochloride]
[1]; 50 μM final drug concentration, cutoff for positive-scoring molecules 3-fold increase, read-out: AK-based Prestwick Library Screening Results, E. faecium (fold increase in extracellular AK activity)
  fold induction at 50 µM: 1.1
[2]; 50 μM final drug concentration, cutoff for positive-scoring molecules 3-fold increase, read-out: AK-based Prestwick Library Screening Results, S. aureus (fold increase in extracellular AK activity)
  fold induction at 50 µM: 1.3
[3]; 50 μM final drug concentration, cutoff for positive-scoring molecules 3-fold increase, read-out: AK-based Prestwick Library Screening Results, K. pneumoniae (fold increase in extracellular AK activity)
  fold induction at 50 µM: 1.2
[4]; 50 μM final drug concentration, cutoff for positive-scoring molecules 3-fold increase, read-out: AK-based Prestwick Library Screening Results, A. baumannii (fold increase in extracellular AK activity)
  fold induction at 50 µM: 1.4
[5]; 50 μM final drug concentration, cutoff for positive-scoring molecules 3-fold increase, read-out: AK-based Prestwick Library Screening Results, P. aeruginosa (fold increase in extracellular AK activity)
  fold induction at 50 µM: 1.2
[6]; 50 μM final drug concentration, cutoff for positive-scoring molecules 3-fold increase, read-out: AK-based Prestwick Library Screening Results, E. cloacae (fold increase in extracellular AK activity)
  fold induction at 50 µM: 2
[7]; 50 μM final drug concentration, cutoff for positive-scoring molecules 3-fold increase, read-out: AK-based Prestwick Library Screening Results, E. coli (fold increase in extracellular AK activity)
  fold induction at 50 µM: 1.2

## C#CCN(C)CCCOc1ccc(Cl)cc1Cl [Clorgyline hydrochloride]
[1]; [8]
  fold induction at 50 µM: 0.7
[2]; [9]
  fold induction at 50 µM: 0.5
[3]; [10]
  fold induction at 50 µM: 0.5
[4]; [11]
  fold induction at 50 µM: 0.6
[5]; [12]
  fold induction at 50 µM: 0.7
[6]; [13]
  fold induction at 50 µM: 0.8
[7]; [14]
  fold induction at 50 µM: 0.7

## Nc1cc(C(Cl)=C(Cl)Cl)c(S(N)(=O)=O)cc1S(N)(=O)=O [Clorsulon]
[1]; 50 μM final drug concentration, planktonic, cutoff for positive 3-fold increase, read-out: AK-based Prestwick Library Screening Results, E. faecium (fold increase in extracellular AK activity)
  fold induction at 50 µM: 1.4
[2]; 50 μM final drug concentration, planktonic, cutoff for positive 3-fold increase, read-out: AK-based Prestwick Library Screening Results, S. aureus (fold increase in extracellular AK activity)
  fold induction at 50 µM: 1.5
[3]; 50 μM final drug concentration, planktonic, cutoff for positive 3-fold increase, read-out: AK-based Prestwick Library Screening Results, K. pneumoniae (fold increase in extracellular AK activity)
  fold induction at 50 µM: 1
[4]; 50 μM final drug concentration, planktonic, cutoff for positive 3-fold increase, read-out: AK-based Prestwick Library Screening Results, A. baumannii (fold increase in extracellular AK activity)
  fold induction at 50 µM: 1
[5]; 50 μM final drug concentration, planktonic, cutoff for positive 3-fold increase, read-out: AK-based Prestwick Library Screening Results, P. aeruginosa (fold increase in extracellular AK activity)
  fold induction at 50 µM: 1.1
[6]; 50 μM final drug concentration, planktonic, cutoff for positive 3-fold increase, read-out: AK-based Prestwick Library Screening Results, E. cloacae (fold increase in extracellular AK activity)
  fold induction at 50 µM: 1.7
[7]; 50 μM final drug concentration, planktonic, cutoff for positive 3-fold increase, read-out: AK-based Prestwick Library Screening Results, E. coli (fold increase in extracellular AK activity)
  fold induction at 50 µM: 1

## Clc1ccccc1C(c1ccccc1)(c1ccccc1)n1ccnc1 [Clotrimazole]
[1]; [15]
  fold induction at 50 µM: 1.3
[2]; [16]
  fold induction at 50 µM: 2
[3]; [17]
  fold induction at 50 µM: 1
[4]; [18]
  fold induction at 50 µM: 3.3
[5]; [19]
  fold induction at 50 µM: 1
[6]; [20]
  fold induction at 50 µM: 1
[7]; [21]
  fold induction at 50 µM: 1

## Cc1onc(-c2ccccc2Cl)c1C(=O)N[C@@H]1C(=O)N2[C@@H]1SC(C)(C)[C@@H]2C(=O)O [Cloxacillin sodium salt]
[1]; [15]
  fold induction at 50 µM: 1
[2]; [16]
  fold induction at 50 µM: 5.3
[3]; [17]
  fold induction at 50 µM: 0.7
[4]; [18]
  fold induction at 50 µM: 1.3
[5]; [19]
  fold induction at 50 µM: 1
[6]; [20]
  fold induction at 50 µM: 1
[7]; [21]
  fold induction at 50 µM: 1

## CN1CCN(C2=Nc3cc(Cl)ccc3Nc3ccccc32)CC1 [Clozapine]
[1]; [8]
  fold induction at 50 µM: 0.9
[2]; [9]
  fold induction at 50 µM: 0.7
[3]; [10]
  fold induction at 50 µM: 0.8
[4]; [11]
  fold induction at 50 µM: 0.9
[5]; [12]
  fold induction at 50 µM: 1
[6]; [13]
  fold induction at 50 µM: 1
[7]; [14]
  fold induction at 50 µM: 0.9

## COc1cc2c(c(OC)c1OC)-c1ccc(OC)c(=O)cc1[C@@H](NC(C)=O)CC2 [Colchicine]
[1]; read-out: AK-based Prestwick Library Screening Results, E. faecium (increase in extracellular AK activity)
  fold induction at 50 µM: 1
[2]; read-out: AK-based Prestwick Library Screening Results, S. aureus (increase in extracellular AK activity)
  fold induction at 50 µM: 1
[3]; read-out: AK-based Prestwick Library Screening Results, K. pneumoniae (increase in extracellular AK activity)
  fold induction at 50 µM: 0.9
[4]; read-out: AK-based Prestwick Library Screening Results, A. baumannii (increase in extracellular AK activity)
  fold induction at 50 µM: 1
[5]; read-out: AK-based Prestwick Library Screening Results, P. aeruginosa (increase in extracellular AK activity)
  fold induction at 50 µM: 1
[6]; read-out: AK-based Prestwick Library Screening Results, E. cloacae (increase in extracellular AK activity)
  fold induction at 50 µM: 1.1
[7]; read-out: AK-based Prestwick Library Screening Results, E. coli (increase in extracellular AK activity)
  fold induction at 50 µM: 1.2

## Nc1ccccc1S(N)(=O)=O [Compound 2-Aminobenzenesulfonamide, 2-Aminobenzenesulfonamide]
[1]; 50 μM final drug concentration, planktonic, cutoff for positive-scoring molecules 3-fold increase, read-out: AK-based Prestwick Library Screening Results, E. faecium (fold increase in extracellular AK activity)
  fold induction at 50 µM: 0.9
[2]; 50 μM final drug concentration, planktonic, cutoff for positive-scoring molecules 3-fold increase, read-out: AK-based Prestwick Library Screening Results, S. aureus (fold increase in extracellular AK activity)
  fold induction at 50 µM: 0.8
[3]; 50 μM final drug concentration, planktonic, cutoff for positive-scoring molecules 3-fold increase, read-out: AK-based Prestwick Library Screening Results, K. pneumoniae (fold increase in extracellular AK activity)
  fold induction at 50 µM: 0.7
[4]; 50 μM final drug concentration, planktonic, cutoff for positive-scoring molecules 3-fold increase, read-out: AK-based Prestwick Library Screening Results, A. baumannii (fold increase in extracellular AK activity)
  fold induction at 50 µM: 0.9
[5]; 50 μM final drug concentration, planktonic, cutoff for positive-scoring molecules 3-fold increase, read-out: AK-based Prestwick Library Screening Results, P. aeruginosa (fold increase in extracellular AK activity)
  fold induction at 50 µM: 0.9
[6]; 50 μM final drug concentration, planktonic, cutoff for positive-scoring molecules 3-fold increase, read-out: AK-based Prestwick Library Screening Results, E. cloacae (fold increase in extracellular AK activity)
  fold induction at 50 µM: 1.4
[7]; 50 μM final drug concentration, planktonic, cutoff for positive-scoring molecules 3-fold increase, read-out: AK-based Prestwick Library Screening Results, E. coli (fold increase in extracellular AK activity)
  fold induction at 50 µM: 1.1

## Clc1cnccn1 [Compound 2-Chloropyrazine, 2-Chloropyrazine]
[1]; planktonic E. faecium, 50 μM final drug concentration, positive cutoff 3-fold increase, read-out: AK-based Prestwick library screening result, E. faecium (fold increase in extracellular AK activity)
  fold induction at 50 µM: 1.1
[2]; planktonic S. aureus, 50 μM final drug concentration, positive cutoff 3-fold increase, read-out: AK-based Prestwick library screening result, S. aureus (fold increase in extracellular AK activity)
  fold induction at 50 µM: 1.1
[3]; planktonic K. pneumoniae, 50 μM final drug concentration, positive cutoff 3-fold increase, read-out: AK-based Prestwick library screening result, K. pneumoniae (fold increase in extracellular AK activity)
  fold induction at 50 µM: 0.9
[4]; planktonic A. baumannii, 50 μM final drug concentration, positive cutoff 3-fold increase, read-out: AK-based Prestwick library screening result, A. baumannii (fold increase in extracellular AK activity)
  fold induction at 50 µM: 1.2
[5]; planktonic P. aeruginosa, 50 μM final drug concentration, positive cutoff 3-fold increase, read-out: AK-based Prestwick library screening result, P. aeruginosa (fold increase in extracellular AK activity)
  fold induction at 50 µM: 1
[6]; planktonic E. cloacae, 50 μM final drug concentration, positive cutoff 3-fold increase, read-out: AK-based Prestwick library screening result, E. cloacae (fold increase in extracellular AK activity)
  fold induction at 50 µM: 1.4
[7]; planktonic E. coli, 50 μM final drug concentration, positive cutoff 3-fold increase, read-out: AK-based Prestwick library screening result, E. coli (fold increase in extracellular AK activity)
  fold induction at 50 µM: 1
